Experimental data: patent US6566389B1, “Therapeutic uses of melatonin” (Neurim Pharmaceuticals (1991) Ltd., priority 1999, dated 2003)
Marks after values point to notes of the source that are not given here.

Columns and labels:
[1] = tested on: patients with tardive dyskinesia on long-term neuroleptic treatment; test: Randomized, double blind, crossover trial of melatonin on tardive dyskinesia severity, Abnormal Involuntary Movements Scale (AIMS); type: in vivo, human
Procedure: The effect of melatonin on tardive dyskinesis was determined on a trial population of 22 patients, of whom 6 were schizoaffective and 16 were paranoid schizophrenics. All patients, who had been receiving long-term neuroleptic treatment, were diagnosed according to DSM IV. They consisted of 11 men and 11 women, age 39±15 years, age range 17-61 years, of whom 19 completed the trial and are included in the results. In a randomized, double blind, crossover manner, subjects were given daily either 2×5 mg melatonin in a controlled-release formulation (Circadin™, Neurim Pharmaceuticals, Israel), two hours before bedtime, or a placebo of identical appearance, for a period of six weeks, with a four week placebo wash-out between two treatment periods. […] During the last week of each treatment period, TD severity was assessed using the Abnormal Involuntary Movements Scale (AIMS) and comparisons were made between placebo or melatonin treatments, and baseline.

[2] = tested on: pinealectomized rats treated with haloperidol; conditions: 4 mg, i.p., within one hour; cited from earlier work

With `COc1ccc2[nH]cc(CCNC(C)=O)c2c1` [melatonin] the “T-test (t21), AIMS sub-scale 5” value ([1]; arms, hands, baseline/administration difference, placebo vs. melatonin) was −1.78, the “p of T-test, AIMS sub-scale 5” value ([1]; arms, hands, placebo vs. melatonin) was 0.09 and the “decrease, ie. improvement (AIMS), after administration” value ([1]; change from baseline after melatonin, placebo −1±1.3) was −3±2.1. The “T-test (t21), AIMS sub-scale 1” value ([1]; facial and oral movements, baseline/administration difference, placebo vs. melatonin) was −1, the “p of T-test, AIMS sub-scale 1” value ([1]; facial and oral movements, placebo vs. melatonin) was 0.33 and the “p (MANOVA) of decrease after melatonin compared with placebo” value ([1]; highly significant) was less than 0.0001. The “T-test (t21), AIMS sub-scale 9” value ([1]; implication due to abnormal movements, baseline/administration difference, placebo vs. melatonin) was −1.14, the “p of T-test, AIMS sub-scale 9” value ([1]; implication due to abnormal movements, placebo vs. melatonin) was 0.27 and the “T-test (t21), AIMS sub-scale 3” value ([1]; jaw, baseline/administration difference, placebo vs. melatonin) was −1.14. The “p of T-test, AIMS sub-scale 3” value ([1]; jaw, placebo vs. melatonin) was 0.27, the “T-test (t21), AIMS sub-scale 6” value ([1]; legs, knees, baseline/administration difference, placebo vs. melatonin) was −2.81 and the “p of T-test, AIMS sub-scale 6” value ([1]; legs, knees, placebo vs. melatonin, significant outcome) was 0.01*. The “T-test (t21), AIMS sub-scale 2” value ([1]; lips and perioral area, baseline/administration difference, placebo vs. melatonin) was −3.92, the “p of T-test, AIMS sub-scale 2” value ([1]; lips and perioral area, placebo vs. melatonin, significant outcome) was <0.001* and the “T-test (t21), AIMS sub-scale 7” value ([1]; neck, shoulder, baseline/administration difference, placebo vs. melatonin) was −2.49. For the same molecule, the “p of T-test, AIMS sub-scale 7” value ([1]; neck, shoulder, placebo vs. melatonin, significant outcome) was 0.02*, the “T-test (t21), AIMS sub-scale 10” value ([1]; patient's awareness, baseline/administration difference, placebo vs. melatonin) was “delta = 0” and the “T-test (t21), AIMS sub-scale 11” value ([1]; problem with teeth, baseline/administration difference, placebo vs. melatonin) was “delta = 0”. The “T-test (t21), AIMS sub-scale 8” value ([1]; severity of abnormal movements, baseline/administration difference, placebo vs. melatonin) was −1.82, the “p of T-test, AIMS sub-scale 8” value ([1]; severity of abnormal movements, placebo vs. melatonin) was 0.08 and the “T-test (t21), AIMS sub-scale 4” value ([1]; tongue, baseline/administration difference, placebo vs. melatonin) was −0.81. For the same molecule, the “p of T-test, AIMS sub-scale 4” value ([1]; tongue, placebo vs. melatonin) was 0.43 and the “severity of movements after melatonin” value [2] was “non-significant reduction of the severity of movements”.
